# Measurements from patent publication US11161852B1 (Halia Therapeutics, Inc., priority 2020, dated 2021).
# Biological target: full-length recombinant human NEK7 (Homo sapiens (Human), UniProt Q8TDX7)
# Test: NEK7 Enzymatic Assay ([33P]-ATP, casein substrate)
# Type: biochemical
# Protocol: Casein substrate (from bovine milk, hydrolyzed and partially dephosphorylated mixture of α, β and a caseins, obtained from Sigma Aldrich, catalogue #C4765, diluted in distilled water to a final concentration of 1 mg/mL) and full-length recombinant human NEK7 (expressed by baculovirus in Sf9 insect cells using a N-terminal GST tag, obtained from SignalChem, catalogue #N09-10G, 0.1 μg/μL) were mixed in assay buffer (20 mM Hepes pH 7.5, 10 mM MgCl2, 1 mM EGTA, 0.02% Brij35, 0.02 mg/ml BSA, 0.1 mM Na3VO4, 2 mM DTT, 1% DMSO). Compounds of interest (serial 3-fold dilution in DMSO from 10 μM to 0.5 nM) or vehicle (1% DMSO) were dispensed into the kinase reaction mixture by Acoustic technology (Echo550; nanoliter range). After incubation at room temperature for 20 minutes, the kinase reaction was initiated by addition of [^33P]-ATP (specific activity […]) and the mixture was incubated at room temperature for 2 hours. The reaction was then stopped by spotting the reaction mixture on strips of phosphocellulose P81 paper. Following washing, the radioactivity of the P81 paper was measured and kinase activity data were expressed as the percent remaining kinase activity in test samples compared to vehicle reactions. IC50 values and curve fits were obtained using Prism (GraphPad Software).
# full-length recombinant human NEK7, sequence (Q8TDX7 whole entry): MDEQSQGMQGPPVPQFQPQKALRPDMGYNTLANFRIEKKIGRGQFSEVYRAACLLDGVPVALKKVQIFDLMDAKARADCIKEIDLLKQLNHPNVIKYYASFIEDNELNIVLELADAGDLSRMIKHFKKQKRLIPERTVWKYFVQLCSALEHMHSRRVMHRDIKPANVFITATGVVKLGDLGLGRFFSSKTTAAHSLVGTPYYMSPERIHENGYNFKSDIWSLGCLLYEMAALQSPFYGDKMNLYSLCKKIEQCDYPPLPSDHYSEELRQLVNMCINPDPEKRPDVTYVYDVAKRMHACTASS
row,SMILES,IC50 [nM]
1,"CC(C)c1cc(NC(=O)Nc2ccc(-c3cn(C4CC4)c4ncnc(N)c34)cc2F)on1 [Example 32, 1-(4-(4-amino-7-cyclopropyl-7H-pyrrolo[2,3-d]pyrimidin-5-yl)-2-fluorophenyl)-3-(3-isopropylisoxazol-5-yl)urea]",< 150
2,"CCc1cc(NC(=O)Nc2ccc(-c3cn(C4CC4)c4ncnc(N)c34)cc2F)on1 [Example 33, 1-(4-(4-amino-7-cyclopropyl-7H-pyrrolo[2,3-d]pyrimidin-5-yl)-2-fluorophenyl)-3-(3-ethylisoxazol-5-yl)urea]",< 150
3,"Nc1ncnc2c1c(-c1ccc(NC(=O)Nc3cc(CO)no3)c(F)c1)cn2C1CC1 [Example 36, 1-(4-(4-amino-7-cyclopropyl-7H-pyrrolo[2,3-d]pyrimidin-5-yl)-2-fluorophenyl)-3-(3-(hydroxymethyl)isoxazol-5-yl)urea]",501 to 1500
4,"Cc1cc(-c2cn(C3CC3)c3ncnc(N)c23)ncc1NC(=O)Nc1cc(C2(C(F)(F)F)CC2)no1 [Example 40, 1-(6-(4-amino-7-cyclopropyl-7H-pyrrolo[2,3-d]pyrimidin-5-yl)-4-methylpyridin-3-yl)-3-(3-(1-(trifluoromethyl)cyclopropyl)isoxazol-5-yl)urea]",> 1500
5,"CC(C)(O)Cn1cc(-c2ccc(NC(=O)Nc3cc(C4(C(F)(F)F)CC4)no3)nc2)c2c(N)ncnc21 [Example 46, 1-(5-(4-amino-7-(2-hydroxy-2-methylpropyl)-7H-pyrrolo[2,3-d]pyrimidin-5-yl)pyridin-2-yl)-3-(3-(1-(trifluoromethyl)cyclopropyl)isoxazol-5-yl)urea]",< 150
6,"Nc1ncnc2c1c(-c1ccc(NC(=O)Nc3cc(C4(C(F)(F)F)CC4)no3)c(CO)c1)cn2C1CC1 [Example 49, 1-(4-(4-amino-7-cyclopropyl-7H-pyrrolo[2,3-d]pyrimidin-5-yl)-2-(hydroxymethyl)phenyl)-3-(3-(1-(trifluoromethyl)cyclopropyl)isoxazol-5-yl)urea]",> 1500
7,"N#Cc1cc(-c2cn(C3CC3)c3ncnc(N)c23)ccc1NC(=O)Nc1cc(C2(C(F)(F)F)CC2)no1 [Example 50, 1-(4-(4-amino-7-cyclopropyl-7H-pyrrolo[2,3-d]pyrimidin-5-yl)-2-cyanophenyl)-3-(3-(1-(trifluoromethyl)cyclopropyl)isoxazol-5-yl)urea]",> 1500
8,"COCCn1cc(-c2ccc(NC(=O)Nc3cc(C4(C(F)(F)F)CC4)no3)c(F)c2)c2c(N)ncnc21 [Example 51, 1-(4-(4-amino-7-(2-methoxyethyl)-7H-pyrrolo[2,3-d]pyrimidin-5-yl)-2-fluorophenyl)-3-(3-(1-(trifluoromethyl)cyclopropyl)isoxazol-5-yl)urea]",< 150
9,"Nc1ncnc2c1c(-c1ccc(NC(=O)Nc3cc(C4(C(F)(F)F)CC4)no3)c(F)c1)cn2CCO [Example 52, 1-(4-(4-amino-7-(2-hydroxyethyl)-7H-pyrrolo[2,3-d]pyrimidin-5-yl)-2-fluorophenyl)-3-(3-(1-(trifluoromethyl)cyclopropyl)isoxazol-5-yl)urea]",< 150
10,"COc1cc(-c2cn(C3CC3)c3ncnc(N)c23)ccc1NC(=O)Nc1cc(C2(C(F)(F)F)CC2)no1 [Example 55, 1-(4-(4-amino-7-cyclopropyl-7H-pyrrolo[2,3-d]pyrimidin-5-yl)-2-methoxyphenyl)-3-(3-(1-(trifluoromethyl)cyclopropyl)isoxazol-5-yl)urea]",> 1500
11,"CN1CCC(n2cc(-c3ccc(NC(=O)Nc4cc(C5(C(F)(F)F)CC5)no4)c(F)c3)c3c(N)ncnc32)C1 (stereo not shown) [Example 56, 1-(4-(4-amino-7-(1-methylpyrrolidin-3-yl)-7H-pyrrolo[2,3-d]pyrimidin-5-yl)-2-fluorophenyl)-3-(3-(1-(trifluoromethyl)cyclopropyl)isoxazol-5-yl)urea]",301 to 500
12,"Nc1ncnc2c1c(-c1ccc(NC(=O)Nc3cc(C4(C(F)(F)F)CCC4)on3)c(F)c1)cn2C1CC1 [Example 57, 1-(4-(4-amino-7-cyclopropyl-7H-pyrrolo[2,3-d]pyrimidin-5-yl)-2-fluorophenyl)-3-(5-(1-(trifluoromethyl)cyclobutyl)isoxazol-3-yl)urea]",< 150
13,"Nc1ncnc2c1c(-c1ccc(NC(=O)Nc3cc(C4(C(F)(F)F)CC4)on3)c(F)c1)cn2C1CCC1 [Example 58, 1-(4-(4-amino-7-cyclobutyl-7H-pyrrolo[2,3-d]pyrimidin-5-yl)-2-fluorophenyl)-3-(5-(1-(trifluoromethyl)cyclopropyl)isoxazol-3-yl)urea]",501 to 1500
14,"Nc1ncnc2c1c(-c1ccc(NC(=O)Nc3cc(C4(C(F)(F)F)CC4)no3)cn1)cn2C1CC1 [Example 59, 1-(6-(4-amino-7-cyclopropyl-7H-pyrrolo[2,3-d]pyrimidin-5-yl)pyridin-3-yl)-3-(3-(1-(trifluoromethyl)cyclopropyl)isoxazol-5-yl)urea]",> 1500
15,"Nc1ncnc2c1c(-c1ccc(NC(=O)Nc3cc(C4(C(F)(F)F)CC4)on3)c(F)c1)cn2CCO [Example 61, 1-(4-(4-amino-7-(2-hydroxyethyl)-7H-pyrrolo[2,3-d]pyrimidin-5-yl)-2-fluorophenyl)-3-(5-(1-(trifluoromethyl)cyclopropyl)isoxazol-3-yl)urea]",< 150
16,"Nc1nccc2c1c(-c1ccc(NC(=O)Nc3cc(C4(C(F)(F)F)CC4)no3)c(F)c1)cn2C1CC1 [Example 62, 1-(4-(4-amino-1-cyclopropyl-1H-pyrrolo[3,2-c]pyridin-3-yl)-2-fluorophenyl)-3-(3-(1-(trifluoromethyl)cyclopropyl)isoxazol-5-yl)urea]",> 1500

# Continued, values first:
row,IC50 [nM],SMILES
1,> 1500,"Nc1ncnc2c1c(-c1cc(F)c(NC(=O)Nc3cc(C4(C(F)(F)F)CC4)no3)c(F)c1)cn2C1CC1 [Example 41, 1-(4-(4-amino-7-cyclopropyl-7H-pyrrolo[2,3-d]pyrimidin-5-yl)-2,6-difluorophenyl)-3-(3-(1-(trifluoromethyl)cyclopropyl)isoxazol-5-yl)urea]"
2,501 to 1500,"Nc1ncnc2c1c(-c1cc(F)c(NC(=O)Nc3cc(C4(C(F)(F)F)CC4)no3)cc1F)cn2C1CC1 [Example 42, 1-(4-(4-amino-7-cyclopropyl-7H-pyrrolo[2,3-d]pyrimidin-5-yl)-2,5-difluorophenyl)-3-(3-(1-(trifluoromethyl)cyclopropyl)isoxazol-5-yl)urea]"
3,> 1500,"Nc1ncnc2c1c(-c1c(F)cc(NC(=O)Nc3cc(C4(C(F)(F)F)CC4)no3)cc1F)cn2C1CC1 [Example 43, 1-(4-(4-amino-7-cyclopropyl-7H-pyrrolo[2,3-d]pyrimidin-5-yl)-3,5-difluorophenyl)-3-(3-(1-(trifluoromethyl)cyclopropyl)isoxazol-5-yl)urea]"
4,501 to 1500,Nc1ncnc2c1c(-c1cnc(NC(=O)Nc3cc(C4(C(F)(F)F)CC4)no3)c(F)c1)cn2C1CC1 [Example 44]
5,151 to 300,"Nc1ncnc2c1c(-c1ccc(NC(=O)Nc3cc(C4(C(F)(F)F)CCC4)no3)c(F)c1)cn2C1CC1 [Example 45, 1-(4-(4-amino-7-cyclopropyl-7H-pyrrolo[2,3-d]pyrimidin-5-yl)-2-fluorophenyl)-3-(3-(1-(trifluoromethyl)cyclobutyl)isoxazol-5-yl)urea]"
6,> 1500,"Nc1ncnc2c1c(-c1cnc(NC(=O)Nc3cc(C4(C(F)(F)F)CC4)no3)nc1)cn2C1CC1 [Example 48, 1-(5-(4-amino-7-cyclopropyl-7H-pyrrolo[2,3-d]pyrimidin-5-yl)pyrimidin-2-yl)-3-(3-(1-(trifluoromethyl)cyclopropyl)isoxazol-5-yl)urea]"
7,301 to 500,"Nc1ncnc2c1c(-c1ccc(NC(=O)Nc3cc(C4(C(F)(F)F)CC4)no3)c(F)c1)cn2C1CCC1 [Example 53, 1-(4-(4-amino-7-cyclobutyl-7H-pyrrolo[2,3-d]pyrimidin-5-yl)-2-fluorophenyl)-3-(3-(1-(trifluoromethyl)cyclopropyl)isoxazol-5-yl)urea]"
8,> 1500,"Nc1ncnc2c1c(-c1ccc(NC(=O)Nc3cc(C4(C(F)(F)F)CC4)no3)c(Cl)c1)cn2C1CC1 [Example 54, 1-(4-(4-amino-7-cyclopropyl-7H-pyrrolo[2,3-d]pyrimidin-5-yl)-2-chlorophenyl)-3-(3-(1-(trifluoromethyl)cyclopropyl)isoxazol-5-yl)urea]"
9,> 1500,"Nc1ncnc2c1c(-c1cc(F)c(NC(=O)Nc3cc(C4(C(F)(F)F)CC4)on3)c(F)c1)cn2C1CC1 [Example 60, 1-(4-(4-amino-7-cyclopropyl-7H-pyrrolo[2,3-d]pyrimidin-5-yl)-2,6-difluorophenyl)-3-(5-(1-(trifluoromethyl)cyclopropyl)isoxazol-3-yl)urea]"
